The subject of experiment [1] is Mycobacterium tuberculosis. In words: Antimycobacterial activity against Mycobacterium tuberculosis H37Rv cultured in 7H12 medium after 4 days by microplate Alamar blue assay. It counts as functional. The note with it: 96 h.
The test system of experiment [2] is Mycobacterium tuberculosis. Description: Antimycobacterial activity against Mycobacterium tuberculosis H37Rv cultured in GAS medium after 4 days by microplate Alamar blue assay. As to conditions: 96 h. It counts as functional. (Resazurin is reduced to fluorescent resorufin, in cell work by metabolically active cells.)
In experiment [3] the test system is Mycolicibacterium vaccae. Description: Antibacterial activity against Mycobacterium vaccae IMET 10670. It counts as functional.
Experiment [4] relates to Staphylococcus aureus. In words: Antibacterial activity against Staphylococcus aureus SG511. It counts as functional.
The test system of experiment [5] is Staphylococcus aureus. In words: Antibacterial activity against Staphylococcus aureus SG511 assessed as zone of growth inhibition by agar diffusion assay. It counts as functional. On the technique in general: In agar diffusion tests the substance spreads into inoculated agar from a disc or well.
The subject of experiment [6] is Bacillus subtilis. Description: Antibacterial activity against Bacillus subtilis ATCC 6633. It counts as functional.
The subject of experiment [7] is Bacillus subtilis. Description: Antibacterial activity against Bacillus subtilis ATCC 6633 assessed as zone of growth inhibition by agar diffusion assay. It counts as functional.
Experiment [8] has as its system Micrococcus luteus. Description: Antibacterial activity against Micrococcus luteus ATCC 10240 assessed as zone of growth inhibition by agar diffusion assay. It counts as functional.
In experiment [9] the test system is Mycolicibacterium vaccae. In words: Antibacterial activity against Mycobacterium vaccae IMET 10670 assessed as zone of growth inhibition by agar diffusion assay. It counts as functional.
Experiment [10] deals with Micrococcus luteus. In words: Antibacterial activity against Micrococcus luteus ATCC 10240. It counts as functional.
For experiment [11], the system named is Micrococcus luteus. In words: Antibacterial activity against Micrococcus luteus ATCC 10240 assessed as zone of growth inhibition at 1.66 ug/ml by agar diffusion assay. As to conditions: read-out: IZ. It counts as functional.
For experiment [12], the system named is Staphylococcus aureus. Description: microbe, parasite or virus in culture. The note with it: SG511, read-out: IZ.
Description: Antibacterial activity against Staphylococcus aureus SG511 assessed as zone of growth inhibition at 1.66 ug/ml by agar diffusion assay
Experiment [13] relates to Bacillus subtilis. In words: microbe, parasite or virus in culture. As to conditions: ATCC 6633, read-out: IZ.
Description: Antibacterial activity against Bacillus subtilis ATCC 6633 assessed as zone of growth inhibition at 1.66 ug/ml by agar diffusion assay
Experiment [14] concerns Mycolicibacterium vaccae. Description: Antibacterial activity against Mycobacterium vaccae IMET 10670 assessed as zone of growth inhibition at 1.66 ug/ml by agar diffusion assay. It counts as functional. As to conditions: read-out: IZ.

Converted amounts (≈) assume the structure as drawn.

For `CC(C)(C)OC(=O)N1CCN(c2nc(=O)c3cc(C(F)(F)F)cc([N+](=O)[O-])c3s2)CC1`, the MIC (as a rule, the lowest concentration found to suppress growth) is 0.28 µM (≈ 0.129 µg/mL) in experiment [1] and below 0.2 µM in experiment [2].

As for `Cc1ccn2c(C(=O)N3CCN(c4nc(=O)c5cc(C(F)(F)F)cc([N+](=O)[O-])c5s4)CC3)c(C)nc2c1`, the MIC came out at 2.1 µM (≈ 1.12 µg/mL) in experiment [1] and 1.43 µM (≈ 0.761 µg/mL) in [2].

In the case of `O=C(Cc1ccccc1)N[C@@H]1C(=O)N2C(C(=O)O)=C(CN3CCN(c4nc(=O)c5cc(C(F)(F)F)cc([N+](=O)[O-])c5s4)CC3)CS[C@H]12`, the MIC was 12.5 µM (≈ 8.63 µg/mL) in the experiment with Mycolicibacterium vaccae [3]; 0.4 µM (≈ 0.276 µg/mL) with Staphylococcus aureus [4]; 86.8 µM (≈ 60 µg/mL) in experiment [1]; below 0.003 µM against Bacillus subtilis [6]; 1.56 µM (≈ 1.08 µg/mL) against Micrococcus luteus [10]; 48.9 µM (≈ 33.8 µg/mL) in experiment [2]. In addition, the “inhibition zone (IZ)” value with Staphylococcus aureus [5] is 32 mm; with Bacillus subtilis [7], 41 mm; in the experiment on Micrococcus luteus [8] it was 48 mm; in the experiment on Mycolicibacterium vaccae [9], 33 mm.

In the case of `Cc1ccn2c(C(=O)NCCCC(=O)OCc3ccccc3)c(C)nc2c1`, the MIC in experiment [1] was 5.85 µM (≈ 2.14 µg/mL); in experiment [2] it was above 10 µM.

Consider `Cc1ccn2c(C(=O)NCc3ccc(C(=O)N4CCN(c5nc(=O)c6cc(C(F)(F)F)cc([N+](=O)[O-])c6s5)CC4)cc3)c(C)nc2c1`, for which the MIC in [1] and in experiment [2] was above 10 µM each time.

As for `Cc1ccn2c(C(=O)NCc3ccc(C(=O)OCc4ccccc4)cc3)c(C)nc2c1`, the figures for the MIC in experiment [1] and in [2] were 0.21 µM (≈ 0.0868 µg/mL) and 4.1 µM (≈ 1.7 µg/mL), respectively.

For `CC(C)(C)OC(=O)C1=C(COC(=O)N2CCN(c3nc(=O)c4cc(C(F)(F)F)cc([N+](=O)[O-])c4s3)CC2)CS[C@@H]2[C@H](NC(=O)Cc3ccccc3)C(=O)N12`, the MIC turned out to be 1.49 µM (≈ 1.18 µg/mL) in experiment [1] and 63.5 µM (≈ 50.2 µg/mL) in experiment [2].

With `C[C@H]1COC2(CCN(c3nc(=O)c4cc(C(F)(F)F)cc([N+](=O)[O-])c4s3)CC2)O1` [BTZ-043], the MIC in the experiment on Mycolicibacterium vaccae [3] is 0.03 µM (≈ 0.0129 µg/mL); in the experiment on Staphylococcus aureus [4], above 200 µM; in [1], below 0.004 µM; with Micrococcus luteus [10] it was above 200 µM; in [2], below 0.004 µM.

For `O=C(Cc1ccccc1)N[C@@H]1C(=O)N2C(C(=O)O)=C(CN3CCN(c4cc5c(cc4F)c(=O)c(C(=O)O)cn5C4CC4)CC3)CS[C@H]12`, the values for the MIC in the experiment with Staphylococcus aureus [4], with Bacillus subtilis [6] and in the experiment with Micrococcus luteus [10] were 0.2 µM (≈ 0.132 µg/mL), below 0.1 µM and 3.13 µM (≈ 2.07 µg/mL), respectively.

In the case of `COc1ccc(COC(=O)C2=C(CN3CCN(c4nc(=O)c5cc(C(F)(F)F)cc([N+](=O)[O-])c5s4)CC3)CS[C@@H]3[C@H](NC(=O)Cc4ccccc4)C(=O)N23)cc1`, the MIC in the experiment with Staphylococcus aureus [4] is 1.56 µM (≈ 1.26 µg/mL); in experiment [1], above 100 µM; against Bacillus subtilis [6], 0.1 µM (≈ 0.0811 µg/mL); in [2], above 100 µM. For the same compound, the “inhibition zone (IZ)” value in the experiment on Staphylococcus aureus [5] is recorded as 37 mm; in the experiment with Bacillus subtilis [7] it was 36 mm; in the experiment on Micrococcus luteus [8], 24 mm; in the experiment on Mycolicibacterium vaccae [9], 24 mm.

With `CO[C@H]1/C=C/O[C@@]2(C)Oc3c(C)c(O)c4c(O)c(c(/C=N/N5CCN(C)CC5)c(O)c4c3C2=O)NC(=O)/C(C)=C\C=C\[C@H](C)[C@H](O)[C@@H](C)[C@@H](O)[C@@H](C)[C@H](OC(C)=O)[C@@H]1C` [RIFAMPIN], the results for the MIC in [1] and in [2] were 0.05 µM (≈ 0.0411 µg/mL) and 0.04 µM (≈ 0.0329 µg/mL), respectively.

Consider `Cc1ccn2c(C(=O)NCCCC(=O)N3CCN(c4nc(=O)c5cc(C(F)(F)F)cc([N+](=O)[O-])c5s4)CC3)c(C)nc2c1`, for which the MIC in experiment [1] and in [2] was above 10 µM each time.

Regarding `CC(C)(C)OC(=O)C1=C(CN2CCN(c3nc(=O)c4cc(C(F)(F)F)cc([N+](=O)[O-])c4s3)CC2)CS[C@@H]2[C@H](NC(=O)Cc3ccccc3)C(=O)N12`, the MIC in the experiment on Mycolicibacterium vaccae [3] amounted to 0.8 µM (≈ 0.597 µg/mL); against Staphylococcus aureus [4] it was 12.5 µM (≈ 9.33 µg/mL); in [1] it was 2.03 µM (≈ 1.52 µg/mL); with Bacillus subtilis [6], 1.56 µM (≈ 1.16 µg/mL); in [2], 1.51 µM (≈ 1.13 µg/mL). For the same compound, the “inhibition zone (IZ)” value amounted to 23 mm in the experiment on Staphylococcus aureus [5], 27 mm in the experiment on Bacillus subtilis [7], 13 mm in the experiment with Micrococcus luteus [8] and 29 mm with Mycolicibacterium vaccae [9].

`O=C(Cc1ccccc1)N[C@@H]1C(=O)N2C(C(=O)O)=C(COC(=O)N3CCN(c4nc(=O)c5cc(C(F)(F)F)cc([N+](=O)[O-])c5s4)CC3)CS[C@H]12`: the MIC was determined as 0.2 µM (≈ 0.147 µg/mL) in the experiment with Mycolicibacterium vaccae [3]; 12.5 µM (≈ 9.18 µg/mL) in the experiment with Staphylococcus aureus [4]; 4.63 µM (≈ 3.4 µg/mL) in [1]; 0.8 µM (≈ 0.588 µg/mL) in the experiment on Bacillus subtilis [6]; 12 µM (≈ 8.79 µg/mL) in [2]. Besides, the “inhibition zone (IZ)” value in the experiment with Staphylococcus aureus [5] is recorded as 27 mm; with Bacillus subtilis [7], 41 mm; in the experiment on Micrococcus luteus [8], 24 mm; in the experiment with Mycolicibacterium vaccae [9] it was 48 mm.

With `Cc1ccn2c(C(=O)NCCC(=O)N3CCN(c4nc(=O)c5cc(C(F)(F)F)cc([N+](=O)[O-])c5s4)CC3)c(C)nc2c1`, the MIC in experiment [1] and in experiment [2] was above 10 µM each time.

For the compound `CC(C)(C)OC(=O)C1=C(COC(=O)OC(Cl)C(Cl)(Cl)Cl)CS[C@@H]2[C@H](NC(=O)Cc3ccccc3)C(=O)N12` (stereo partly specified), the figures for the MIC in experiment [1] and in [2] were above 50 µM and 22.2 µM (≈ 13.7 µg/mL), respectively.

As to `O=C(O)c1cn(C2CC2)c2cc(N3CCNCC3)c(F)cc2c1=O` [CIPROFLOXACIN], the zone of inhibition at 1.66 µg/mL with Micrococcus luteus [11] was 0 mm; in the experiment with Staphylococcus aureus [12] it was 20 mm; in the experiment with Bacillus subtilis [13], 20 mm; with Mycolicibacterium vaccae [14], 17 mm. Also, it took 0.15 µM (≈ 0.0497 µg/mL) to inhibit growth with Bacillus subtilis [6] (MIC).

With `Cc1ccn2c(C(=O)NCCC(=O)OCc3ccccc3)c(C)nc2c1`, the MIC in experiment [1] and in [2] was above 10 µM in each case.

The values above are taken from ChEMBL document CHEMBL3785045, “Design, syntheses, and anti-tuberculosis activities of conjugates of piperazino-1,3-benzothiazin-4-ones (pBTZs) with 2,7-dimethylimidazo [1,2-a]pyridine-3-carboxylic acids and 7-phenylacetyl cephalosporins” (2016).
